The record followed here is patent publication US11884642B2, “Compounds useful as potassium channel openers” (ACOUSIA THERAPEUTICS GMBH, priority 2017, dated 2024).

The subject of this series is guinea pigs. The experiment in a line: Ototoxic drug-induced (kanamycin/furosemide) hearing loss model in vivo, CAP threshold recordings of the auditory nerve. Further details: species or system guinea pig. As to the method:
The inventive compounds were also tested in vivo. In this context, for repeated recording of the Compound Action Potential (CAP) of the auditory nerve, guinea pigs were bilaterally implanted with a permanent gold electrode at the round window niche. The round window is an opening from the middle ear into the inner ear. The gold electrodes were connected to a miniature plug on the skull. During the experiments, audiograms were determined between 0.5 and 45.6 kHz, at a resolution of 8 steps per octave. An automated threshold search algorithm was applied.
After a baseline audiogram was measured, the animals were pretreated with an inventive compound, as an ion channel activator, via local application to the middle ear. The corresponding solution of the inventive compound was removed after an exposure time, e. g. after 2 hours. Then, the middle ear was rinsed and dried out before CAP recordings were performed to assess threshold shifts.
Then, deafness was induced with the Guinea pigs by local application to the middle ear of a mixture of at least one ototoxic agent and at least one inventive compound. E. g. kanamycin, furosemide or mixtures of these compounds can be used as ototoxic agents.
The resulting CAP response thresholds were compared to ears which were exposed to the ototoxic agents alone.
All animals received care in accordance with the standards described by the German ‘Law on Protecting Animals’ (Tierschutzgesetz) and with the European Directive 2010/63/EU for the protection of animals used for experimental purposes. Experiments were approved by the local authorities (Application HN03/15).
All procedures were performed under anesthesia using a mixture of Fentanyl, Midazolam and Medetomidine. During surgery and measurements animals were kept on a 37° C. heating pad. For repeated recording of the Compound Action Potential (CAP) of the auditory nerve, guinea pigs were bilaterally implanted with a permanent gold electrode at the round window (RW) niche connected to a miniature plug on the skull. Audiograms were determined between 0.5 and 45.6 kHz, at a resolution of 8 steps per octave. An automated threshold search algorithm was applied.
After a baseline audiogram was measured, animals were pretreated with an ion channel activator, in this case with ACOU001, via local application to the middle ear. […]
The solution containing ACOU001 was removed after 2 hours and the middle ear rinsed and dried out before CAP recordings were performed to assess threshold shifts. […] After the final measurement on day 21, animals were sacrificed, cochleae fixed by perfusion with 4% paraformaldehyde and prepared for immunohistological analysis to quantify hair cell (HC) protection.

`O=C(NCc1ccc(S(F)(F)(F)(F)F)cc1)c1ccc(Cl)s1` [ACOU001, 5-Chloro-N-(4-(pentafluorosulfanyl)benzyl)thiophene-2-carboxamide]: the “CAP curves (threshold levels) over time after co-treatment” value (7 and 21 days after kanamycin/furosemide plus compound) was “shifted to higher threshold levels after seven days but ameliorated after 21 days”. Also, the “reduction of hearing loss compared to the ototoxic drug alone” value by setting is: (after 21 days, all frequencies, co-treatment with kanamycin/furosemide) 25-40 dB SPL; (day 0, mid to high frequencies (5-11 kHz), 100 μM with 200 mg/ml kanamycin, 50 mg/ml furosemide, local to middle ear) about 25 dB SPL. Moreover, the “CAP-threshold loss after pretreatment” value (day 0, 2 hours local application to the middle ear, compared to baseline CAP-thresholds in untreated ears) was “small, most likely conductive, hearing loss”.
